These results are taken from patent US10377694B2, “Bi-aromatic propynyl compounds, pharmaceutical and cosmetic compositions containing them and uses thereof” (GALDERMA RESEARCH & DEVELOPMENT, priority 2016, dated 2019).

Assay in all cases: Transactivation test (apparent Kd by Schild regression versus reference antagonist), luciferase reporter in HeLa cells
What all share (format): cell-based
For orientation: In a reporter assay the amount or activity of a reporter protein is the signal.

The target in one assay is T1, RAR alpha (Homo sapiens, UniProt P10276).
T1 sequence (P10276 183-417 limits assumed): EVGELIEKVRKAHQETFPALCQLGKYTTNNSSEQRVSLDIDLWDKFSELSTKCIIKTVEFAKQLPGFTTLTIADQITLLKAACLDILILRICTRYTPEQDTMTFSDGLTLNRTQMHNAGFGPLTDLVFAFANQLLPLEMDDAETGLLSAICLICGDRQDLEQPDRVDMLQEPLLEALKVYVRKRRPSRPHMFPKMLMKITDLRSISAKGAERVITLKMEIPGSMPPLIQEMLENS
Particulars: HeLa stable transfectants ERE-βGlob-Luc-SV-Neo and RAR alpha ER-DBD-puro, 18 hours incubation, read-out: RAR alpha Kdapp. How it is done: (§1) Activation of receptors by an agonist (activator) in HeLa cells leads to the expression of a reporter gene, luciferase, which generates light in the presence of a substrate. Therefore the activation of receptors can be measured by quantifying the luminescence produced after incubation of the cells in the presence of a reference antagonist. The activator products displace the antagonist from its site, thus permitting the receptor to be activated. The activity is measured by quantifying the increase in light produced. This measurement determines the activating activity of the useful compound in the invention.
(§2) In this study, a constant is determined that represents the affinity of the molecule for the receptor. This value can fluctuate according to the basal activity and expression of the receptor; it is designated apparent Kd (KdApp).
(§3) To determine this constant, cross curves are created of the product to be tested (4′-(3-hydroxy-propyl)-3′-(5,5,8,8-tetramethyl-5,6,7,8-tetrahydro-naphthalen-2-yl)-biphenyl-4-carboxylic acid and 4′-(2,3-dihydroxy-propyl)-3′-(5,5,8,8-tetramethyl-5,6,7,8-tetrahydro-naphtalen-2-yl)-biphenyl-4-carboxylic) acid versus a reference antagonist also called reference ligand, 4-(5,5-dimethyl-8-p-tolyl-5,6-dihydro-naphthalen-2-ylethynyl)-benzoic acid. The product to be tested is used at 10 concentrations and the reference antagonist at 7 concentrations. In each well (of a 96-well plate), the cells are in contact with one concentration of the product to be tested and one concentration of the reference antagonist.
(§4) Full agonist controls, also called 100% controls, (4-[2-(5,5,8,8 tetramethyl-5,6,7,8 tetrahydronaphthalene-2-yl)propenyl]-benzoic acid) and inverse agonist controls, also called 0% controls, (4-{(E)-3-[4-(4-tert-butyl-phenyl)-5,5,8,8-tetramethyl-5,6,7,8-tetrahydro-naphthalen-2-yl]-3-oxo-propenyl}-benzoic acid) are also measured.
(§5) These cross curves allow determining the AC50 (concentration at which 50% activation of the receptor is observed) of the reference ligand at different concentrations of the product to be tested. These AC50s are used to calculate the Schild regression by plotting a line conforming to the Schild equation (“Quantitation in receptor pharmacology” Terry P. Kenakin, Receptors and Channels, 2001, 7, 371-385).
(§6) In the case of an agonist, the AC50 is calculated by plotting the curve of the product at the concentration of the reference ligand giving 80% activation. The percentage of activation that corresponds to the maximum level of activity obtained is also measured.
(§7) The HeLa cell lines used are stable transfectants containing the plasmids ERE-βGlob-Luc-SV-Neo (reporter gene) and RAR (α, β, γ) ER-DBD-puro. These cells are inoculated onto 96-well plates in an amount of 10,000 cells per well in 100 μl DMEM medium with no phenol red and supplemented with 10% delipidated fetal bovine serum. The plates are then incubated at 37° C., 7% CO2 for 4 hours.
(§8) The different dilutions of the product to be tested, the reference ligand (4-(5,5-dimethyl-8-p-tolyl-5,6-dihydro-naphthalen-2-ylethynyl)-benzoic acid), the 100% control (100 nM 4-[2-(5,5,8,8 tetramethyl-5,6,7,8 tetrahydronaphthalene-2-yl)propenyl]-benzoic acid) and the 0% control (500 nM 4-{(E)-3-[4-(4-tert-butyl-phenyl)-5,5,8,8-tetramethyl-5,6,7,8-tetrahydro-naphthalen-2-yl]-3-oxo-propenyl}-benzoic acid) are added in an amount of 5 μl per well. The plates are then incubated 18 hours at 37° C., 7% CO2.
(§9) The culture medium is removed by turning over and 100 μl of a 1:1 PBS (phosphate buffer solution)/luciferin mixture is added to each well. After 5 minutes, the plates are read by the luminescence reader.

Another assay deals with T2, RAR beta (Homo sapiens, UniProt P10826).
T2 sequence (P10826 183-417 limits assumed): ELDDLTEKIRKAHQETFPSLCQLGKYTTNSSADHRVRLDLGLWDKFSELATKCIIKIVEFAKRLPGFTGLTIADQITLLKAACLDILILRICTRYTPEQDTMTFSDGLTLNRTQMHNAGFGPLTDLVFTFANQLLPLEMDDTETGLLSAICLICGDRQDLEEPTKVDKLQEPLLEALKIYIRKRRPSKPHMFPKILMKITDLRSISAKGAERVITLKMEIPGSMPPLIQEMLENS
Particulars: HeLa stable transfectants ERE-βGlob-Luc-SV-Neo and RAR beta ER-DBD-puro, 18 hours incubation, read-out: RAR beta Kdapp. How it is done:
as §1, §2, §3, §4, §5, §6, §7, §8, §9

In another assay the target is T3, RAR gamma (Homo sapiens, UniProt P13631).
T3 sequence (P13631 185-454 limits assumed): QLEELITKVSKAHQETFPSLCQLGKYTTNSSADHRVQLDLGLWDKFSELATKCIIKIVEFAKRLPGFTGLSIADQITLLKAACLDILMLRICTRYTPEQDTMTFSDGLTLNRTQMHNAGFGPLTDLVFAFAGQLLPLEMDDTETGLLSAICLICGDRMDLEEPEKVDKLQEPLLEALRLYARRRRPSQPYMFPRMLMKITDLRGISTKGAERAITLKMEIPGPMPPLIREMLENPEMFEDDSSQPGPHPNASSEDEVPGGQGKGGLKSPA
Particulars: HeLa stable transfectants ERE-βGlob-Luc-SV-Neo and RAR gamma ER-DBD-puro, 18 hours incubation, read-out: RAR gamma Kdapp. Here is the method: as §1, §2, §3, §4, §5, §6, §7, §8, §9

As to `CC1(C)CCC(C)(C)c2c(O)cc(C#Cc3ccc(C(=O)O)c(O)c3)cc21` [Compound 1], the Kd on RAR alpha came to 120 nM; on RAR beta it was 4 nM; at RAR gamma, 4 nM.

Take `CC1(C)CCC(C)(C)c2c(OCC3CC3)cc(C#Cc3ccc(C(=O)O)cn3)cc21` [Compound 2]: the Kd was 30 nM on RAR alpha, 2 nM at RAR beta and 4 nM at RAR gamma.
